Data reported in patent US20250002854A1, “METHODS OF GENERATING POPULATIONS OF TUMOUR-INFILTRATING T CELLS” (LYTIX BIOPHARMA AS, priority 2016, published 2025).
Square brackets hold non-standard residues; d marks the D form. Ends that are not written are not given here. Dip = N[C@H](C(=O)O)C(c1ccccc1)c1ccccc1

Columns and labels:
B16F1 cells [1] = experiment: In vitro cytotoxicity, MTT assay (IC50 4h); type: cell-based, murine; conditions: B16F1, 4 h
From the text: JM1, a rat hepatocellular carcinoma, HEPG2 and BEL7402, both human hepatocellular carcinomas, were kindly provided by Dr. Pål-Dag Line, Director, Department of Transplantation Medicine, Oslo University Hospital. B16F1 (ATCC, CRL-6323), a murine skin malignant melanoma, MDA-MB-435S (HTB-129), a human malignant melanoma originating from a breast metastases, Malme-3M (HTB-64), a human malignant melanoma derived from a lung metastases, MRC-5 (ATCC, CCL-171), normal human lung fibroblasts, SK-N-AS (ATCC, CRL-2137), a human neuroblastoma cell line derived from a bone marrow metastases, HT-29 (ATCC, HTB-38), a human colorectal adenocarcinoma and HUV-EC-C (ATCC, CRL-1730), a human vascular endothelium cell line, were all purchased from the American Type Culture Collection (ATCC-LGC Standards, Rockville, MD, USA). HaCat, a human keratinocyte cell line, was kindly provided by Dr. Ingvild Pettersen, Department of Host Microbe Interactions, University of Tromsø. A375, a malignant melanoma cell line of human origin, was purchased from Public Health England (PHE Culture Conditions, Porton, Down, Salisbury, UK). JM1, A375, BEL7402, HEPG2 and B16F1 were all maintained in culture media consisting of DMEM (high glucose), while SK-N-AS, HT-29 and MDA-MB-435S were cultured in an RPMI-1640 medium containing 2 mM L-glutamine and sodium bicarbonate. […]

B16F1 cells [2] = experiment: Release of HMGB1 (Western blot); type: cell-based, murine; conditions: 108 μM
Procedure: B16F1 cells were seeded at a density of 2×10^5 cells/well in 6-well plates in a complete medium, and allowed to adhere overnight. Cells were treated with 108 μM of LTX-401 (4×IC50^4h), and incubated at 37° C. (>95% humidity and 5% CO2) for different time points (10, 30, 60, 90 and 120 minutes). Serum-free RPMI 1640 was used as a negative control, and supernatants (S) were collected and centrifuged at 1,400 g for 5 min before being up-concentrated using Amicon Ultra-0.5 Centrifugal Filter units with Ultracel-50 membrane (Milipore, Norway). Cell lysates (L) were harvested after washing with 2 mL of serum-free RPMI-1640 and subjected to a lysis buffer (mastermix) containing 2×NuPAGE LDS Sample buffer (Invitrogen, Norway), a 1×NuPAGE Sample Reducing Agent (Invitrogen, Norway) and 50% sterile H20. Both supernatants and lysates were boiled at 70° C. for 10 min and resolved on NuPAGE Novex 4-12% Bis-Tris Gels (Millipore, Norway) before being electrotransferred to a polyvindiline difluoride (PVDF) membrane (Millipore, Norway). […]

A375 cells [3] = experiment: Release of ATP (luciferase bioluminescence); type: cell-based, human; conditions: 5 minutes, different concentrations
Procedure: The supernatant of LTX-315-treated A375 cells was analyzed using an Enliten ATP luciferase assay kit (Promega, USA). Cells were then seeded as with an ROS assay, and treated with LTX-315 in different incubation times, from 1 to 15 minutes with two parallels, which was then conducted three times. Negative controls were untreated A375 cells exposed to serum-free media alone. Samples were diluted at 1:50 and 1:100, and analyzed with a Luminoscan RT luminometer according to the manufacturer's protocol.

A375 cells [4] = experiment: Release of cytochrome-C (ELISA); type: cell-based, human; conditions: 35 μM
Procedure: A375 cells were seeded as with HMGB1 studies, and treated with 35 μM for different time points (5, 15, 45). Supernatants were collected and concentrated as with HMGB1 studies, and samples from the supernatants were analyzed using a 4.5 hour solid form Cytochrome C-Elisa kit (R&D Systems, USA, #DCTC0) following the manufacturer's description. Shortly thereafter, a 50% diluted sample was analyzed and the optical density was determined using a microplate reader set at 450 nm, and […]. A standard curve was generated for each set of samples assayed. Samples were run in four parallels, and the cytochrome-c released into the supernatant was expressed as a fold over the level of cytochrome-c in the supernatant of untreated cells.

| Compound | IC50 (B16F1 cells [1]) | time at which HMGB1 translocation was absolute (B16F1 cells [2]) | time at which release of HMGB1 occurs (B16F1 cells [2]) | ATP in the supernatant (A375 cells [3]) | cytochrome-C in the supernatant compared to untreated control cells (A375 cells [4]) |
| --- | --- | --- | --- | --- | --- |
| Cl.Cl.NCCNC(=O)C(CN)(CCCc1ccccc1)CCCc1ccccc1 [LTX-401] | 27 µM | 90 min | 30 min | – | – |
| K-K-W-W-K-K-W-Dip-K-NH2 (KKWWKKW[Dip]K-NH2) [LTX-315] | – | – | – | detected in the supernatant as early as after 5 minutes of treatment | three times more |
